Experiment: xn = mol fraction of the nth substance listed

CCC(C)Cl (stereo not drawn) + C1CCOC1
298.15 K, 101 kPa
Conditions	viscosity [mPa·s]
x2 = 0.0544	0.3967
x2 = 0.111	0.3999
x2 = 0.2078	0.4057
x2 = 0.2947	0.411
x2 = 0.3996	0.4176
x2 = 0.5075	0.4246
x2 = 0.6041	0.4313
x2 = 0.7055	0.4387
x2 = 0.8076	0.4469
x2 = 0.9065	0.4551
x2 = 0.9544	0.4592

Brc1ccccc1 + C1CCOCC1
viscosity [mPa·s], 101 kPa
Conditions	x2 = 0.097	x2 = 0.1996	x2 = 0.3053	x2 = 0.4011	x2 = 0.5073
298.15 K	1.05	1.037	1.021	1	0.9753
313.15 K	0.8682	0.8547	0.8377	0.8212	0.7989

Brc1ccccc1 + C1COCCO1
303.15 K, 101 kPa
Conditions	viscosity [mPa·s]
x1 = 0.083	1.075
x1 = 0.17	1.078
x1 = 0.259	1.122
x1 = 0.352	1.131
x1 = 0.449	1.125
x1 = 0.55	1.115
x1 = 0.655	1.108
x1 = 0.766	1.079
x1 = 0.88	1.034

COc1ccccc1O + C1COCCO1
308.15 K, 101 kPa
Conditions	viscosity [mPa·s]
x2 = 0.1	4.29
x2 = 0.2	4.18
x2 = 0.3	3.795
x2 = 0.4	3.347
x2 = 0.5	2.73
x2 = 0.6	2.231
x2 = 0.7	1.834
x2 = 0.8	1.453
x2 = 0.9	1.172

C1=C[C@H]2[C@@H](C1)[C@H]1C=C[C@@H]2C1 + CC1CCCCC1
viscosity [mPa·s], 101.2 kPa
Conditions	x1 = 0.0987	x1 = 0.2012	x1 = 0.3023	x1 = 0.4007	x1 = 0.5024	x1 = 0.6001	x1 = 0.6994	x1 = 0.8017	x1 = 0.9021
293.15 K	0.8197	0.9187	1.043	1.198	1.398	1.646	2.032	2.607	3.386
298.15 K	0.7605	0.8517	0.9677	1.1	1.28	1.504	1.855	2.367	3.029
303.15 K	0.7145	0.791	0.8907	1.011	1.178	1.387	1.693	2.156	2.723
308.15 K	0.6717	0.7439	0.8387	0.9497	1.109	1.306	1.586	1.993	2.477
313.15 K	0.6316	0.7051	0.7996	0.9101	1.05	1.226	1.473	1.819	2.259
318.15 K	0.5952	0.6697	0.7496	0.8519	0.9802	1.138	1.359	1.668	2.059
